Assay results: patent publication US10849898B2, “Treatment of relapsed and/or refractory solid tumors and non-Hodgkin's lymphomas” (CELGENE QUANTICEL RESEARCH, INC., priority 2016, dated 2020)
Like-named read-outs stand apart in the source and are kept apart here.

What was measured:
NCI-H1417 SCLC xenograft [1] = test: Efficacy in NCI-H1417 SCLC xenograft model (athymic nude mice); format: in vivo
[2] = Exploratory toxicity study in dogs
[3] = Hemodynamic and ECG parameters in anesthetized guinea pigs; format: in vivo, Dunkin Hartley guinea pigs
Excerpt: Animals were monitored throughout the experiment.

GA0087 gastric NEC PDX = format: in vivo
MS-1 hMCC xenograft = format: in vivo; conditions: 5 mg/kg PO 5 on/2 off
hERG potassium channel = hERG potassium channel (Homo sapiens (Human), UniProt Q12809); conditions: hERG current
[4] = 4-week oral gavage pivotal toxicity study with 4-week recovery in dogs (with ECG and toxicokinetics); format: in vivo, Beagle dogs
Procedure: The QTc interval was calculated using the Fridericia method.

[5] = Excretion in bile duct cannulated rats; format: in vivo; conditions: IV
[6] = Pharmacokinetics after IV and oral administration; format: in vivo, Sprague Dawley rats; conditions: rats
Excerpt: (§1) Human PK parameters and exposures were predicted using allometric scaling. Mice and dogs were the species used for nonclinical toxicology assessment. […] Excretion of non-radiolabeled Compound A was studied in rats.

MKL-1 cells = test: Modulation of gene expression by RNA-seq; format: cell-based, human
Procedure: Libraries were sequenced on an Illumina NextSeq® 500 System (Illumina, San Diego, Calif.) using 75 base paired-end RNA sequencing. Sequenced reads were mapped to the hg19 human genome build and differential expression was determined by analysis of variance across all replicates relative to the vehicle control.
Sequenced reads were mapped to the hg19 human genome build using the Spliced Transcripts Alignment to a Reference (STAR) software tool (OAlexander Dobin, 2009-2016) and transcript counts were normalized using the Empirical Analysis of Digital Gene Expression Data in R (edgeR) and Differential gene expression analysis based on the negative binomial distribution (DESeq2) software tools (OBioconductor, 2003-2017). Differential expression was determined by analysis of variance across all replicates relative to the vehicle control.

[7] = Exploratory toxicity study in mice; format: in vivo, CD-1 mice
Excerpt: Additional animals were included for TK evaluation.

LXFS 573 SCLC PDX [8] = test: Efficacy in LXFS 573 SCLC PDX model; format: in vivo, mice
[9] = Metabolism in cryopreserved primary hepatocytes; format: in vitro ADME; conditions: mouse, rat, dog, monkey, human
LXFS 573 SCLC PDX [10] = conditions: for SS, number of study survivors: Day 133, N=8
LU2527 lung NEC PDX = format: in vivo
MKL-1 hMCC xenograft = format: in vivo; conditions: 5 mg/kg PO 5 on/2 off
[11] = Pharmacokinetics after IV and oral administration; format: in vivo, CD-1 mice; conditions: Mouse, female, single IV 5 mg base/kg
Excerpt: as §1

[12] = tested on: Salmonella typhimurium TA98 and TA 100 strains; test: Bacterial reverse mutation assay; format: cell-based; conditions: up to 500 μg/mL; with and without S9
LU2514 SCLC PDX = test: Efficacy in LU2514 HuPrime SCLC patient derived xenograft; format: in vivo, mice; conditions: both LU2514 studies
Procedure: Tumor growth inhibition analysis was performed on Day 28 post treatment, the last day of dosing.

NCI-H1417 SCLC xenograft [13] = conditions: 24 mg/kg Etoposide SC QD × 3
[14] = Etoposide at 24 mg/kg/day SC days 1-3 + Vehicle

hERG potassium channel, sequence (Q12809 whole entry): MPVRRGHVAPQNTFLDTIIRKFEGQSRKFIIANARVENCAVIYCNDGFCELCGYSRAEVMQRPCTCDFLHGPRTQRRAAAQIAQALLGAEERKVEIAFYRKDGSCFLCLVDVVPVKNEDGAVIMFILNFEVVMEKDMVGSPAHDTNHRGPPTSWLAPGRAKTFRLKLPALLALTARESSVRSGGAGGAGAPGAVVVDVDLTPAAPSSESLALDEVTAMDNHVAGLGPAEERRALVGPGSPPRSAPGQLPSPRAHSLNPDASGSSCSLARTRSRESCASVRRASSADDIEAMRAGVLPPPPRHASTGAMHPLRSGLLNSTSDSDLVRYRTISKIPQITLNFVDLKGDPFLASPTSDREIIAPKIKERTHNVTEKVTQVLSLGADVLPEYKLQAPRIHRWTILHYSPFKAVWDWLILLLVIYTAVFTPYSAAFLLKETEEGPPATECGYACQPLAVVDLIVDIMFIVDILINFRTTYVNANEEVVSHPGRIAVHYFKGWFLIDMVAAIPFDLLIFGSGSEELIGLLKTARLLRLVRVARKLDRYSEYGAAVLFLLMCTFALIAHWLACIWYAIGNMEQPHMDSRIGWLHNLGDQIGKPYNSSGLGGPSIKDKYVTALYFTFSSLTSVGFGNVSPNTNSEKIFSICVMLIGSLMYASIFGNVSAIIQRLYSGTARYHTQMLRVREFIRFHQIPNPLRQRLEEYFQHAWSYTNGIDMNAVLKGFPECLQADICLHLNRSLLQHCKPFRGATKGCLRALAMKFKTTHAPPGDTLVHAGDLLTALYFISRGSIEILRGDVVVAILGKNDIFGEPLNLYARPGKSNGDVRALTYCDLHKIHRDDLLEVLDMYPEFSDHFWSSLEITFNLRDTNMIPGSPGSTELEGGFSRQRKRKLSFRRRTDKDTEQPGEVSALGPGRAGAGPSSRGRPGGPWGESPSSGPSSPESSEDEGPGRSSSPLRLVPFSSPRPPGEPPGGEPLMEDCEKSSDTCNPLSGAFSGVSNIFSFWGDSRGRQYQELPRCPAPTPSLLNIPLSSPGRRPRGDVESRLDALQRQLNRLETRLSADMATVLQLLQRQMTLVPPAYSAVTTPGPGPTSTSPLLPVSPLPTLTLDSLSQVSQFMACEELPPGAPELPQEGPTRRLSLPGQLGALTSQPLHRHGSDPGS

## COc1ccc(-c2c(-c3ccc(C#N)c(F)c3)nc(N3CCC(N)CC3)n(C)c2=O)cc1F [Compound A, 4-[2-(4-amino-piperidin-1-yl)-5-(3-fluoro-4-methoxy-phenyl)-1-methyl-6-oxo-1,6-dihydro-pyrimidin-4-yl]-2-fluoro-benzonitrile]
NCI-H1417 SCLC xenograft [1]; 2.5 mg base/kg PO QD×65
  mean body weight gain by end of study: 1%
NCI-H1417 SCLC xenograft [1]; 5 mg base/kg PO QD×65
  mean body weight gain by end of study: 7.5%
NCI-H1417 SCLC xenograft [1]; 2.5 or 5 mg base/kg PO QD×65
  tolerability: well tolerated
[2]; 0.25 mg/kg/dose QOD
  Compound A-related effects: generally no Compound A-related effects
[2]; 0.5 mg/kg/day 5 days on/2 days off, Day 12
  body weight loss of moribund female: 10.8%
[2]; 0.5 mg/kg/day 5 days on/2 days off, one female, Day 12
  mortality: sacrificed moribund
[3]; 20 mg base/kg IV, 9 minutes into 10-minute infusion
  maximum suppression of HR vs vehicle: 19%
[3]; IV 5-20 mg base/kg vs time-matched vehicle
  effect on MAP or its components: No notable effect
[3]; after escalating IV doses
  QTcB interval increase at end of monitoring period: 10%
GA0087 gastric NEC PDX; Group 2, 1.5 mg base/kg PO QD × 53
  Median Tumor Volumes Day 0: 128.9 mm^3
GA0087 gastric NEC PDX; Group 3, dose printed 1.5 mg base/kg (text: 5 mg/kg) PO QD × 53
  Median Tumor Volumes Day 0: 127.6 mm^3
MS-1 hMCC xenograft
  Median Tumor Volumes Day −3: 49 mm^3
hERG potassium channel
  Hill coefficient: 1.2
[4]; 0.375 mg base/kg QW
  animals euthanized moribund: 1 male
[4]; 0.75 mg base/kg QW
  animals euthanized moribund: 2 males and 1 female
[4]; 1.5 mg base/kg QW
  animals euthanized moribund: 3 males and 4 females
[4]; dog, in vivo
  recovery of findings after 4-week treatment-free period: complete recovery
[4]; weekly oral administration, study Days 13 to 23
  animals euthanized moribund: 11 animals
[5]; 24 hours
  dose excreted intact in urine: 8.5 % of dose
[5]; bile duct cannulated rats
  dose excreted intact in 24 hours (urine + bile): 26.3 % of the dose
[6]
  systemic clearance: greater than liver blood flow
MKL-1 cells; MKL-1 and MS-1, 10 and 100 nM, 3 days
  downregulated genes changed in both hMCC lines at both concentrations (of 4303): 17 genes
MKL-1 cells; both hMCC lines, 10 and 100 nM
  ST18 and FREM2 gene expression change (upregulated, dose-dependent): at least 2 fold
[7]; 10 mg/kg/day 5 days on/2 days off
  increase in platelets on Day 8 vs end of first dosing period: > 2 fold
[7]; 5 days on/2 days off schedule
  greatest reduction in neutrophil counts vs controls and pre-study values: approximately 90%
[7]; all dose levels
  circulating platelets at end of study: reduced
LXFS 573 SCLC PDX [8]; 5 mg base/kg PO QD × 28
  Median Tumor Volumes Day 1: 108.4 mm^3
LXFS 573 SCLC PDX [8]; 5 mg base/kg oral
  TGI end of study (Day 28): 78%
LXFS 573 SCLC PDX [8]; 7.5 mg base/kg PO QD × 28
  Median Tumor Volumes Day 1: 113.2 mm^3
LXFS 573 SCLC PDX [8]; 10 mg base/kg PO QD × 28
  Median Tumor Volumes Day 1: 113.8 mm^3
[9]
  metabolic stability in hepatocytes: greater in rat and dog followed by human and monkeys while being least stable in mouse hepatocytes
LXFS 573 SCLC PDX [10]; Compound A 1 mg/kg in combination with etoposide 24 mg/kg
  tumor volume of survivor at study end: 1430 mm3
LXFS 573 SCLC PDX [10]; Compound A 1 mg/kg in combination with etoposide 24 mg/kg, n=8
  survivors on Day 133: 1 animals
LXFS 573 SCLC PDX [10]; Compound A 2.5 mg/kg in combination with etoposide 24 mg/kg
  MTV of survivors on Day 133: 1121 mm3
LXFS 573 SCLC PDX [10]; Compound A 2.5 mg/kg in combination with etoposide 24 mg/kg, n=8
  survivors on Day 133: 3 animals
LXFS 573 SCLC PDX [10]; Compound A 5 mg/kg in combination with etoposide 24 mg/kg
  MTV of survivors on Day 133: 121 mm3
LXFS 573 SCLC PDX [10]; Compound A 5 mg/kg in combination with etoposide 24 mg/kg, n=8
  survivors on Day 133: 8 animals
LXFS 573 SCLC PDX [10]; Compound A at 5 mg/kg/day PO days 1-133
  Median TTE: 133 days
LXFS 573 SCLC PDX [10]; Compound A at 5 mg/kg/day
  SS, number of study survivors: 7
LXFS 573 SCLC PDX [10]; Compound A monotherapy 5 mg/kg, n=8
  study survivors on Day 133: seven
LU2527 lung NEC PDX; 1.5 mg base/kg PO QD × 46
  Median Tumor Volumes Day 0: 148.2 mm^3
LU2527 lung NEC PDX; 5 mg base/kg PO QD × 46
  Median Tumor Volumes Day 0: 151.8 mm^3
MKL-1 hMCC xenograft
  Median Tumor Volumes Day −3: 65 mm^3
[11]; CD-1, plasma
  clearance: 39 mL/min/kg
[11]
  Vss: 7.31 L/kg
[12]
  mutagenicity: negative
LU2514 SCLC PDX
  mean body weight losses: < 10%

## COc1cc([C@@H]2c3cc4c(cc3[C@@H](O[C@@H]3O[C@@H]5CO[C@@H](C)O[C@H]5[C@H](O)[C@H]3O)[C@H]3COC(=O)[C@H]23)OCO4)cc(OC)c1O [Etoposide, etoposide, reference compound]
NCI-H1417 SCLC xenograft [13]
  % TGD: 97%
  Median TTE: 50 days
  T − C: 24 days
LXFS 573 SCLC PDX [10]; Etoposide at 24 mg/kg/day + Vehicle
  SS, number of study survivors: 0 (na)
LXFS 573 SCLC PDX [10]; [14]
  Median TTE: 63 days
  T-C: 21 days
LXFS 573 SCLC PDX [10]; etoposide monotherapy 24 mg/kg
  % TGD: 50%
  TGD: 21 days
LXFS 573 SCLC PDX [10]; etoposide monotherapy 24 mg/kg SC daily Days 1-3
  Median TTE: 63 days
